Reference: article PMC9214608 (RSC Advances, 2022)

Test system: MERS-CoV 3CL^pro
Assay: not given
Details: cited from earlier work

For `COc1cc(O)cc(O)c1C(=O)/C=C/c1ccc(O)cc1` [Helichrysetin], which “Inhibition of MERS-CoV 3CL^pro” value is on record?
The value was “able to inhibit MERS-CoV 3CL^pro”.

Target: SARS-CoV-2 main protease (M^pro or 3CL^pro) (Severe acute respiratory syndrome coronavirus 2, UniProt P0DTD1)
Assay: biochemical
Details: In vitro SARS-COV-2 M^pro IC50

For `C=C(C)C(C=C[C@@H](C)[C@H]1CC[C@H]2[C@@H]3CC=C4CC(O)CC[C@]4(C)[C@H]3CC[C@]12C)CC` (stereo partly drawn) [Compound 1, 24-β-ethyl-cholesta-5(6),22(23),25(26)-triene-3-ol], which IC50 is on record?
The IC50 was 12.5 ± 0.64 µM.

Same assay, conditions: In vitro SARS-COV-2 M^pro IC50, FRET-based assay; mean ± SD

For `C[C@H]1[C@H](C)CC[C@]2(C)CC[C@]3(C)C(=CC[C@@H]4[C@@]5(C)CC[C@H](O)C(C)(C)[C@@H]5CC[C@]43C)[C@H]12` [Compound 2, α-amyrin], which IC50 is on record?
The IC50 was 4.18 ± 0.21 µM.

With `CCCCC/C=C\C/C=C\CCCCCCCC(=O)O` [Compound 3, linoleic acid] as the molecule, how does the IC50 read?
The IC50 was 20.7 ± 1.05 µM.

Which IC50 does the source give for `COc1cc(C2CC(=O)c3c(O)cc(O)c(OC)c3O2)ccc1O` (stereo not drawn) [Compound 8, 5,7,4′-trihydroxy-8,3′-dimethoxy flavanone] here?
Its IC50 is 27.9 ± 1.42 µM.

For `COc1c(O)cc2c(c1O)C(=O)CC(c1ccc(O)cc1)O2` (stereo not drawn) [Compound 9, 5,7,4′-trihydroxy-6-methoxy flavanone], which IC50 is on record?
The IC50 was 11.8 ± 0.6 µM.

Which IC50 does the source give for `COc1cc(-c2cc(=O)c3c(O)cc(OC)c(OC)c3o2)ccc1O` [Compound 10, 4′,5-dihydroxy-3′,7,8-trimethoxyflavone] here?
The IC50 was 12.8 ± 0.65 µM.

For `COc1cc(-c2cc(=O)c3c(O)cc(O)c(OC)c3o2)cc(OC)c1OC` [Compound 11, 5,7-dihydroxy-3′,4′,5′,8-tetramethoxy flavone], which IC50 is on record?
The IC50 was 5.07 ± 0.26 µM.

With `COc1c(O)cc2c(c1O)C(=O)CC(c1cc(O)cc(O)c1)O2` (stereo not drawn) [Compound 13, 3′,5′,5,7-tetrahydroxy-6-methoxyflavanone] as the molecule, how does the IC50 read?
The IC50 was 5.56 ± 0.28 µM.

With `O=c1cc(-c2ccc(O)c(O)c2)oc2c([C@@H]3O[C@H](CO)[C@@H](O)[C@H](O)[C@H]3O)c(O)cc(O)c12` [Compound 16, orientin] as the molecule, how does the IC50 read?
Its IC50 is 27.5 ± 1.4 µM.

Which IC50 does the source give for `Cc1cccc(C)c1OCC(=O)N[C@@H](Cc1ccccc1)[C@@H](O)C[C@H](Cc1ccccc1)NC(=O)[C@H](C(C)C)N1CCCNC1=O` [Lopinavir, reference compound] here?
The IC50 was 0.225 ± 0.01 µM.

Same assay, conditions: read-out: In vitro SARS-COV-2 M^pro IC50

With `O=c1cc(-c2ccc(O)c(O[C@@H]3O[C@H](CO)[C@@H](O)[C@H](O)[C@H]3O)c2)oc2cc(O)cc(O)c12` [Compound 17, luteolin-3′-O-β-D-glucoside] as the molecule, how does the IC50 read?
Its IC50 is 10.1 ± 0.52 µM.
